pIC50: −log10 of the molar value.
Key:
MEFs = assay: CellTiter-Glo cytotoxicity assay; format: cell-based, mouse
Description: Cell viability, as determined by CellTiter-Glo, is shown as luminescence; values are averages of triplicate determinations ±S.E.M. of a representative experiment repeated at least two times. […] Data represent single measurements of a representative experiment repeated at least two times.
(§1) The next day, compounds were added (ten concentrations), and the plates were incubated for 24 or 48 hrs at 37° C./5% CO2, and viability was quantified by measuring cellular ATP using luminescence (CellTiter-Glo®, Promega, Madison, Wis., USA) or viability based upon amount of DNA (CyQUANT®, ThermoFisher).

mouse brain mitochondria = assay: Membrane potential in isolated mouse brain mitochondria (uncoupling); details: 50 and 100 μM LRE1, 50 μM KH7
[1] = CyQUANT cell proliferation/viability assay; format: cell-based
Description: as §1

sAC = sAC (Homo sapiens (Human), UniProt Q96PN6); assay: ELISA-based Correlate-EIA Direct cAMP Assay of in vitro sAC activity
sAC, sequence (Q96PN6 1-469): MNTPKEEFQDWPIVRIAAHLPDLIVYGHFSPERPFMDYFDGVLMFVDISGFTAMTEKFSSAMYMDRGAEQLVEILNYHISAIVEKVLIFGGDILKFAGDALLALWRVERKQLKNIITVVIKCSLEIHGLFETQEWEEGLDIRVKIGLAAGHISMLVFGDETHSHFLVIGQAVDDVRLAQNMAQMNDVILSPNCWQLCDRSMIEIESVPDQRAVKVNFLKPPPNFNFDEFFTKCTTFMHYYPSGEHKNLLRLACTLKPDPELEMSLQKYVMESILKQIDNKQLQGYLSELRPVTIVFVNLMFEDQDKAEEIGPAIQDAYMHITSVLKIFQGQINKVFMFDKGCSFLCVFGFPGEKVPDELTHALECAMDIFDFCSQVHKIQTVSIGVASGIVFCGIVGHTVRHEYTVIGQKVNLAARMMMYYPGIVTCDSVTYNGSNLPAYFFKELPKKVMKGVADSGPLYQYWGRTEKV
Description: To avoid assay dependent artifacts, reproducibility and concentration-dependency were simultaneously assessed in the RF-MSS cyclase assay as well as in an independent colorimetric competitive enzyme immunoassay (i.e., ELISA-based Correlate-EIA Direct cAMP Assay).

human sACt protein [2] = target: T1, human sACt protein (Homo sapiens (Human), UniProt Q96PN6); assay: RF-MSS in vitro cyclase assay, concentration-response
T1 sequence (Q96PN6 1-469): as above
Description: To avoid assay dependent artifacts, reproducibility and concentration-dependency were simultaneously assessed in the RF-MSS cyclase assay as well as in an independent colorimetric competitive enzyme immunoassay (i.e., ELISA-based Correlate-EIA Direct cAMP Assay). […] This instrument also includes a Zymark Twister® robotic arm that handles microtiter plates and a purification SPE system. 35 μl of sample was aspirated from each well of a 384-well reaction microtiter plate and then injected onto a graphitized carbon SPE column extraction cartridge, washing with aqueous alkaline buffer and eluting it in an alkaline/organic solvent, onto the electrospray-MS, where the mass spectra of each sample was collected. The RapidFire sipper was washed between sample injections using organic (25% acetonitrile, 25% acetone in 5 mM ammonium acetate, pH 10) and aqueous (5 mM ammonium acetate, pH 10) solvents. RapidFire mass spectrometry screening data were processed and analyzed using Agilent MassHunter Software.

human sACt protein [3] = target: T1, human sACt protein; assay: Primary high-throughput screen for sAC inhibitors (RF-MSS cyclase assay); format: biochemical; details: screened at 10 μM; 1 mM ATP, 5 mM MgCl2, 5 mM CaCl2, 40 mM NaHCO3
Description: This instrument also includes a Zymark Twister® robotic arm that handles microtiter plates and a purification SPE system. 35 μl of sample was aspirated from each well of a 384-well reaction microtiter plate and then injected onto a graphitized carbon SPE column extraction cartridge, washing with aqueous alkaline buffer and eluting it in an alkaline/organic solvent, onto the electrospray-MS, where the mass spectra of each sample was collected. The RapidFire sipper was washed between sample injections using organic (25% acetonitrile, 25% acetone in 5 mM ammonium acetate, pH 10) and aqueous (5 mM ammonium acetate, pH 10) solvents. RapidFire mass spectrometry screening data were processed and analyzed using Agilent MassHunter Software.
The primary screen was performed in polystyrene 384-well microplates (Greiner Bio One International AG). […] The reagents were dispensed using a liquid handling instrument Multidrop™ Combi Assay buffer (50 mM Tris pH 7.5, 5 mM CaCl2, 5 mM MgCl2, 40 mM NaHCO3, 2 mM DTT) was added first on the 384-well plate (Greiner Bio-One) followed by the compounds. The small molecule compounds were dispensed with a nanohead containing a 384-well array of Norgren Kloehn nanosyringes, and each plate was bar-coded. The human sACt protein was added next followed by the remainder of the assay buffer. […]

Compound | toxicity (CellTiter-Glo) (MEFs; 2 days in culture, WT MEFs, KH7 at low μM, LRE1 up to 50 μM) | toxicity (CellTiter-Glo) (MEFs; single day in culture) | mitochondrial uncoupling (mouse brain mitochondria) | toxicity (CyQUANT) ([1]; second day) | toxicity (CyQUANT) ([1]; single day) | pIC50 (sAC) | pIC50 (human sACt protein [2]) | Primary Screen (% NPI) (human sACt protein [3])
CC(Sc1nc2ccccc2[nH]1)C(=O)N/N=C/c1cc(Br)ccc1O (centres unmarked) [KH7] | toxic | neither compound exhibited significant toxicity | uncoupling effect | toxic at low μM concentrations | neither LRE1 nor KH7 were toxic |  |  | 
Cc1cccc(-n2nc(S)sc2=S)c1 [RU-0207328] |  |  |  |  |  | < 4.70 | < 4.70 | 58.1
